Several values for one entry are separate records, joined by “and”; a condition that tells them apart may be missing. Identical values can stand only once. Entries after “also recorded” stand apart in the source; their conditions may differ. Like-named read-outs stand apart in the source and are kept apart here.
Key:
[1] = test system: hexokinase (low Km Hexokinases I, II, and III); conditions: cited from earlier work
[2] = molecular target: T1, GLUT-1 low Km glucose transporter of untransfected parental AtT-20ins cells (Mus musculus, UniProt P17809); test: Glucose transport (3-O-methyl glucose uptake) in untransfected parental AtT-20ins cells; type: cell-based; conditions: untransfected parental AtT-20ins line
T1 sequence (P17809 1-492): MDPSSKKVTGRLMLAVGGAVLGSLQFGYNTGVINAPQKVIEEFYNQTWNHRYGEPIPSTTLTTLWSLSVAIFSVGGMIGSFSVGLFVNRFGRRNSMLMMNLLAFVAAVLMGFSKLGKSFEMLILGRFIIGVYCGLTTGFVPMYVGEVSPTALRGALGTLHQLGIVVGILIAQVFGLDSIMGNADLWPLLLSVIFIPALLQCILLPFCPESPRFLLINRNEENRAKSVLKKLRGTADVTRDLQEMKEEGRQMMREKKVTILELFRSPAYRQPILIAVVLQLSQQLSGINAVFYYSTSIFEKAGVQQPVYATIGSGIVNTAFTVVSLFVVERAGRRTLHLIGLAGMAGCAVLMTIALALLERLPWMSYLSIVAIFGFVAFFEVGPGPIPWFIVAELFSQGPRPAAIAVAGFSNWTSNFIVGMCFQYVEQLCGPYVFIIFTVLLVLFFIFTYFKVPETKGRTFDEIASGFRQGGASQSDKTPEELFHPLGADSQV

parental AtT-20ins cells = test: Insulin secretion, static 3 hour incubation, parental cells; type: cell-based; conditions: 0-20 mM glucose, 3 hours static incubation
Experimental: (§1) Parental or GLUT-2 transfected lines CGT-5 and CGT-6 were removed from growth plates by light trypsinization and replanted in 6 well dishes (Costar) at a density of 5×10^5 cells per well. The cells were then grown for three days in culture media containing 1 mM (see above). […] Cells were incubated with secretagogues for 3 hours, after which media was collected for insulin radioimmunoassay.

[3] = molecular target: T2, rat islet GLUT-2 glucose transporter expressed in AtT-20ins cells (lines CGT-5, CGT-6) (Rattus norvegicus, UniProt P12336)
T2 sequence (P12336 1-522): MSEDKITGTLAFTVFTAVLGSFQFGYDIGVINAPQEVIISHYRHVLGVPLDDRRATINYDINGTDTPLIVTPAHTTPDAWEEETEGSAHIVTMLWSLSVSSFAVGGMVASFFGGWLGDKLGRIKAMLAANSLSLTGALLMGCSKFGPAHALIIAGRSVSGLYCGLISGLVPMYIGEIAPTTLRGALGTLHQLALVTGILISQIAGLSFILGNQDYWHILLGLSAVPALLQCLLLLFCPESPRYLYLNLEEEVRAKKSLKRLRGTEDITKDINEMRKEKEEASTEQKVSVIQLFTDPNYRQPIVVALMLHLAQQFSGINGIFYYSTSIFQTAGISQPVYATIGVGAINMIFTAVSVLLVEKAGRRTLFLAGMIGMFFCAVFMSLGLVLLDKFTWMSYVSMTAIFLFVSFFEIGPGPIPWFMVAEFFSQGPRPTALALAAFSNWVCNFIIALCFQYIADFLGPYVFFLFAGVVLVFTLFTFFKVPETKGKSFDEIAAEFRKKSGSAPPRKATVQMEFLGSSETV

[4] = molecular target: T3, high Km glucose transport activity (GLUT-2) of isolated, dispersed islets of Langerhans (Rattus norvegicus, UniProt P12336); conditions: cited from earlier work
T3 construct: host or cells: isolated, dispersed islets of Langerhans (Johnson et al., 1990a)
T3 sequence (P12336 1-522): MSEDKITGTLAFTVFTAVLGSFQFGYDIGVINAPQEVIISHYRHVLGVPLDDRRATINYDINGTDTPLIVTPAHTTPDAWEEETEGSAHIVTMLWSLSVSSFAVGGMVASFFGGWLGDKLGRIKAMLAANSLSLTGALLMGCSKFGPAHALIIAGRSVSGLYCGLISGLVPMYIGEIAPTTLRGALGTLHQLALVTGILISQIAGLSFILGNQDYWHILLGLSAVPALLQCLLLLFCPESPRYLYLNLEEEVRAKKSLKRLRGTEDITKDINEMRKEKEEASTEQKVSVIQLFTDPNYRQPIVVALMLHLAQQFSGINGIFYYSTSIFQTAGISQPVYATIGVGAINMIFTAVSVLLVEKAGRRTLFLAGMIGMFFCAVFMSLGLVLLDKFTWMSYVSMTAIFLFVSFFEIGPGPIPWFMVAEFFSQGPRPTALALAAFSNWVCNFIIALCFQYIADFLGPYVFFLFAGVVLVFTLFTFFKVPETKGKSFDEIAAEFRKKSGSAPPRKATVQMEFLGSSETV

[5] = molecular target: T4, glucokinase (Hexokinase IV) (Homo sapiens, UniProt P35557); conditions: read-out: Km for glucose; cited from earlier work
T4 sequence (P35557 1-465): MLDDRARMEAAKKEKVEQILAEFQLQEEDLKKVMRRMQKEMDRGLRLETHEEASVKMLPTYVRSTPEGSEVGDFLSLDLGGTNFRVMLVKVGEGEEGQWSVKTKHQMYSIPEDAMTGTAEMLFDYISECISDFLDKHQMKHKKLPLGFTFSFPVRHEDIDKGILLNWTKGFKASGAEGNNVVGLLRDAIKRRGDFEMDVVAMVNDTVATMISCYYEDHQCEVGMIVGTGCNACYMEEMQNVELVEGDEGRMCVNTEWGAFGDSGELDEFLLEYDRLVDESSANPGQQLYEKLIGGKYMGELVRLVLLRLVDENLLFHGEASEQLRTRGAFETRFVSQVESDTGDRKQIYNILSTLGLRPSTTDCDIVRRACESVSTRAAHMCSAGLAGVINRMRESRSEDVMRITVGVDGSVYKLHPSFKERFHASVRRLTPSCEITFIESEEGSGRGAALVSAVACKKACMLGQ

[6] = molecular target: T5, glucokinase, islet isoform (Rattus norvegicus, UniProt P17712); conditions: read-out: Km for glucose; cited from earlier work
T5 sequence (P17712 1-465): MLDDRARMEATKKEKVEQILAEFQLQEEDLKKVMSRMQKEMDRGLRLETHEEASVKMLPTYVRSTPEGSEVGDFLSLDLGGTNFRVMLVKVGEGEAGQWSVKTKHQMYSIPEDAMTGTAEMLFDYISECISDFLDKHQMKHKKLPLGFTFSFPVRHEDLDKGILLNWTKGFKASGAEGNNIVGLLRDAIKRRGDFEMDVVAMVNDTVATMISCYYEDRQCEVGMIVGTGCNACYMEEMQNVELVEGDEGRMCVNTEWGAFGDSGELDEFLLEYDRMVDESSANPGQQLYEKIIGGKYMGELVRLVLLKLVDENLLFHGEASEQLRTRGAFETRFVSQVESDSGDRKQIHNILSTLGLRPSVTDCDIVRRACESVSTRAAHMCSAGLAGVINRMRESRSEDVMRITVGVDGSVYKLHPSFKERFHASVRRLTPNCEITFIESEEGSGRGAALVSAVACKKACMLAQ

[7] = molecular target: T6, glucokinase, liver isoform (Rattus norvegicus, UniProt P17712); conditions: read-out: Km for glucose; cited from earlier work
T6 sequence (P17712 1-465 isoform P17712-3): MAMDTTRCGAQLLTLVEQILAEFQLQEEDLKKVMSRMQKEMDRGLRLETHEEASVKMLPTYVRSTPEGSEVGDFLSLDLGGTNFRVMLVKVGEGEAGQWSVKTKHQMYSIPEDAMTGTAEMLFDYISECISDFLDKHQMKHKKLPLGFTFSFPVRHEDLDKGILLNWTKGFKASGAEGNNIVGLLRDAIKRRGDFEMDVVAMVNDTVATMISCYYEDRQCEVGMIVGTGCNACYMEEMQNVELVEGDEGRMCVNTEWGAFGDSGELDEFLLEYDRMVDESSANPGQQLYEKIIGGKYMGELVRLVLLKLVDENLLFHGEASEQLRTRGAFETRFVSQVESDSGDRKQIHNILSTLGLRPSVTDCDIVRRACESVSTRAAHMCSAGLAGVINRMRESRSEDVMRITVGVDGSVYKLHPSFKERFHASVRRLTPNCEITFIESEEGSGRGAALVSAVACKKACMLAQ

[8] = test system: GLUT-2 transfected AtT-20ins cells (line CGT-6); test: cells; conditions: Mus musculus, 3 h, read-out: maximal stimulation of insulin release relative to 0 mM glucose
Experimental: as §1

[9] = test system: CGT-6 (GLUT-2 expressing AtT-20ins) cells; test: cells
Experimental: Insulin secretion from CGT-6 (GLUT-2,expressing AtT-20ins) cells was evaluated using a column perfusion technique (Knudsen et al., 1983). Cells were grown in liquid culture on microcarrier beads (InvitroGen). Approximately 50×10^6 cells were harvested by gentle centrifugation (500 rpm in a Sorvall RT6000B desk top centrifuge), resuspended in 4ml Krebs-Ringer salt (KRS) solution, pH 7.4, and loaded onto a Pharmacia P10/10 column. A cell count was obtained immediately before loading the column in the following manner. An aliquot of cells was taken, the beads digested with 1.2 U/ml Dispase (Boehringer Mannheim), the cell clumps were dispersed by extrusion through a 25 gauge needle and the cells were counted directly.
After the beads settled in the column, the top plunger of the column was gently inserted and the whole apparatus was submerged in a 37° C. water bath. The cells were then perifused as described below.

RIN 1046-38 cells = RIN 1046-38 cells (Clark, et al., 1990); cited from earlier work
[10] = substrate: OC[C@H]1OC(O)[C@H](O)[C@@H](O)[C@@H]1O; test: cells, lysate or membranes; conditions: 3-O-methyl glucose uptake, 37.0 °C
[11] = lines CGT-5, CGT-6 stated together, 3-O-methyl glucose uptake

O=P(O)(O)OC[C@H]1OC(O)[C@H](O)[C@@H](O)[C@@H]1O (some centres unmarked) [glucose-6-phosphate, reference compound]
inhibition of hexokinase by glucose-6-phosphate ([1]; 10 mM glucose-6-phosphate): potently inhibits; also recorded: potent inhibitor

OC[C@H]1OC(O)[C@H](O)[C@@H](O)[C@@H]1O (some centres unmarked) [glucose]
Vmax [2]: 0.5 mmoles/min/liter cell space | effect of glucose on insulin release (parental AtT-20ins cells): no significant effect | Vmax ([3]; line CGT-5, Lineweaver-Burke analysis): 25 mmoles/min/liter cell space | Vmax ([3]; line CGT-6, Lineweaver-Burke analysis): 17 mmoles/min/liter cell space | Vmax [3, 11]: 19 mmoles/min/liter cell space | estimated Km for glucose [3, 11]: 18 mM | Vmax ([4]; dispersed islets (Johnson, et al., 1990a)): 24 mmoles/min/liter cell space | Km ([4]; read-out: Km for glucose, dispersed islets (Johnson, et al., 1990a)): 18 mM | Km ([1]; read-out: Km for glucose, Hexokinases I, II, and III): ~0.05 mM | Km [5]: ~8 mM and 8 to 10 mM | Km [6]: 8 to 10 mM and ~10 mM | Km [7]: 8 to 10 mM | maximal fold induction [8]: ~2.5 | fold induction at 5000 µM ([9]; 5 min, read-out: insulin secretion second plateau above pre-glucose level): 3 | fold induction at 5000 µM ([9]; read-out: increase in insulin release, first phase, over baseline without glucose): 10 | glucose concentration at which stimulation of insulin release is maximal (RIN 1046-38 cells): 0.5 mM

B1: rat islet GLUT-2 glucose transporter expressed in AtT-20ins cells (lines CGT-5, CGT-6) (Rattus norvegicus) (protein)
chain: MSEDKITGTLAFTVFTAVLGSFQFGYDIGVINAPQEVIISHYRHVLGVPLDDRRATINYDINGTDTPLIVTPAHTTPDAWEEETEGSAHIVTMLWSLSVSSFAVGGMVASFFGGWLGDKLGRIKAMLAANSLSLTGALLMGCSKFGPAHALIIAGRSVSGLYCGLISGLVPMYIGEIAPTTLRGALGTLHQLALVTGILISQIAGLSFILGNQDYWHILLGLSAVPALLQCLLLLFCPESPRYLYLNLEEEVRAKKSLKRLRGTEDITKDINEMRKEKEEASTEQKVSVIQLFTDPNYRQPIVVALMLHLAQQFSGINGIFYYSTSIFQTAGISQPVYATIGVGAINMIFTAVSVLLVEKAGRRTLFLAGMIGMFFCAVFMSLGLVLLDKFTWMSYVSMTAIFLFVSFFEIGPGPIPWFMVAEFFSQGPRPTALALAAFSNWVCNFIIALCFQYIADFLGPYVFFLFAGVVLVFTLFTFFKVPETKGKSFDEIAAEFRKKSGSAPPRKATVQMEFLGSSETV
Km ([10]; other: line CGT-5, Lineweaver-Burke analysis): 16 mM | Km ([10]; other: line CGT-6, Lineweaver-Burke analysis): 17 mM

B2: GLUT-1 low Km glucose transporter of untransfected parental AtT-20ins cells (Mus musculus) (protein)
chain: MDPSSKKVTGRLMLAVGGAVLGSLQFGYNTGVINAPQKVIEEFYNQTWNHRYGEPIPSTTLTTLWSLSVAIFSVGGMIGSFSVGLFVNRFGRRNSMLMMNLLAFVAAVLMGFSKLGKSFEMLILGRFIIGVYCGLTTGFVPMYVGEVSPTALRGALGTLHQLGIVVGILIAQVFGLDSIMGNADLWPLLLSVIFIPALLQCILLPFCPESPRFLLINRNEENRAKSVLKKLRGTADVTRDLQEMKEEGRQMMREKKVTILELFRSPAYRQPILIAVVLQLSQQLSGINAVFYYSTSIFEKAGVQQPVYATIGSGIVNTAFTVVSLFVVERAGRRTLHLIGLAGMAGCAVLMTIALALLERLPWMSYLSIVAIFGFVAFFEVGPGPIPWFIVAELFSQGPRPAAIAVAGFSNWTSNFIVGMCFQYVEQLCGPYVFIIFTVLLVLFFIFTYFKVPETKGRTFDEIASGFRQGGASQSDKTPEELFHPLGADSQV
Km ([10]; other: untransfected parental AtT-20ins line): 2 mM

From patent publication US5792656A (priority 1995, dated 1998)
